In BindingDB's records for doi:10.1111/cbdd.12713 (Novartis Institutes of Biomedical Research Institute, 2016):

target: T1, Aquaporin-1 (Homo sapiens, UniProt P29972); test: Stopped-flow Assay
T1 sequence (P29972 whole entry): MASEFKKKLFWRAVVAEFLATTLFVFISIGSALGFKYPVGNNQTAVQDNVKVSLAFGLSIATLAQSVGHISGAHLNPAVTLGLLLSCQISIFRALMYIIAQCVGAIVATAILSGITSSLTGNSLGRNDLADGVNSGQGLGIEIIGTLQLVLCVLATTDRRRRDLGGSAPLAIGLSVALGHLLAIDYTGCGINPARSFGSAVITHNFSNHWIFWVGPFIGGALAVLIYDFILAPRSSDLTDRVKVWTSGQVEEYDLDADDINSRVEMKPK
Experimental: Osmotic water permeability was measured at 22-24 °C bymonitoring 90° scattered light intensity at 520 nm wavelength. Measurements were made using a PiStar 180 (Applied Photophysics, UK), with a dead time of 1-2 milliseconds. Thirty minutes prior to the assay, stripped red blood cell ghosts or proteoliposomes containing purified AQP1 and stored in ice were treated with mercuric chloride (50-100 µM; positive control for inhibition) or with the various compounds usually at a concentration of 150 µM. Stock solutions of compounds were in 100% ethanol (for stripped erythrocyte membrane experiments) and in 100% DMSO (for proteoliposome experiments). An inwardly directed osmotic gradient (hyperosmotic shock) was created by mixing the vesicles maintained in Buffer A (50 mM sodium phosphate buffer pH, 100 mM NaCl, 1 mM EDTA, 0.025% sodium azide) with an equal volume of 200 mM mannitol. On the other hand, vesicles preincubated with 200 mM mannitol were mixed with Buffer A to create an outwardly

Row | IC50 | SMILES
1 | 15.2 µM | NCC1Cc2cc(F)cc(-c3ccc(Cl)cc3Cl)c2O1 (stereo unspecified) [[7-(2,4-dichlorophenyl)-5-fluoro-2,3-dihydro-1-benzofuran-2-yl]methanamine (Compound 5)]
2 | 29.4 µM | CNCC1Cc2cc(F)cc(-c3c(Cl)cccc3Cl)c2O1 (stereo unspecified) [{[7-(2,6-dichlorophenyl)-5-fluoro-2,3-dihydro-1-benzofuran-2-yl]methyl}(methyl)amine (Compound 6)]
3 | 9.8 µM | CNCC1Cc2cc(F)cc(-c3ccc(Cl)cc3Cl)c2O1 (stereo unspecified) [{[7-(2,4-dichlorophenyl)-5-fluoro-2,3-dihydro-1-benzofuran-2-yl]methyl}(methyl)amine (Compound 4)]
4 | 2.7 µM | Nc1nc(NC[C@H]2CC[C@H](CNS(=O)(=O)c3cccc4ccccc34)CC2)nc2ccccc12 [CGP 71683]
5 | 5.8 µM | Nc1nc(NC[C@H]2CC[C@H](CNS(=O)(=O)c3cccc4c(Cl)cccc34)CC2)nc2ccccc12 [5-chloro-N-{[(1r,4r)-4-{[(4-aminoquinazolin-2-yl)amino]methyl}cyclohexyl]methyl}naphthalene-1-sulfonamide (Compound 3)]
6 | 3.9 µM | Nc1nc(NC[C@H]2CC[C@H](CNS(=O)(=O)c3ccc4ccccc4c3)CC2)nc2ccccc12
